Assays:
human PASK = target: T1, human PASK (Homo sapiens, UniProt Q96RG2); experiment: ADP-Glo kinase assay; assay type: biochemical; settings: ADPGlo PASK kinase assay, 25 μM ATP, ZIPtide 25 μM
T1 construct: purchased ThermoFisher Scientific PR7013A
Summary of the method: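 Human recombinant PASK phosphorylating ZIPtide peptide with ATP, 120 min at RT; compounds in 10-point 1/5 dilution series, 1% DMSO final. ADP formed measured by ADP-Glo luminescence after ATP depletion; percent inhibition fitted to dose-response curves for averaged IC50.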

[1] = target: T2, autophosphorylation of PASK at position Thr307 in Hek293 cells overexpressing PASK (Homo sapiens, UniProt Q96RG2); experiment: PASK autophosphorylation ELISA assay; assay type: cell-based; settings: 24 h, ELISA readout
T2 construct: expressed in transfected cells; host or cells: Hek293
T2 sequence (Q96RG2 with tags, fused parts or gaps): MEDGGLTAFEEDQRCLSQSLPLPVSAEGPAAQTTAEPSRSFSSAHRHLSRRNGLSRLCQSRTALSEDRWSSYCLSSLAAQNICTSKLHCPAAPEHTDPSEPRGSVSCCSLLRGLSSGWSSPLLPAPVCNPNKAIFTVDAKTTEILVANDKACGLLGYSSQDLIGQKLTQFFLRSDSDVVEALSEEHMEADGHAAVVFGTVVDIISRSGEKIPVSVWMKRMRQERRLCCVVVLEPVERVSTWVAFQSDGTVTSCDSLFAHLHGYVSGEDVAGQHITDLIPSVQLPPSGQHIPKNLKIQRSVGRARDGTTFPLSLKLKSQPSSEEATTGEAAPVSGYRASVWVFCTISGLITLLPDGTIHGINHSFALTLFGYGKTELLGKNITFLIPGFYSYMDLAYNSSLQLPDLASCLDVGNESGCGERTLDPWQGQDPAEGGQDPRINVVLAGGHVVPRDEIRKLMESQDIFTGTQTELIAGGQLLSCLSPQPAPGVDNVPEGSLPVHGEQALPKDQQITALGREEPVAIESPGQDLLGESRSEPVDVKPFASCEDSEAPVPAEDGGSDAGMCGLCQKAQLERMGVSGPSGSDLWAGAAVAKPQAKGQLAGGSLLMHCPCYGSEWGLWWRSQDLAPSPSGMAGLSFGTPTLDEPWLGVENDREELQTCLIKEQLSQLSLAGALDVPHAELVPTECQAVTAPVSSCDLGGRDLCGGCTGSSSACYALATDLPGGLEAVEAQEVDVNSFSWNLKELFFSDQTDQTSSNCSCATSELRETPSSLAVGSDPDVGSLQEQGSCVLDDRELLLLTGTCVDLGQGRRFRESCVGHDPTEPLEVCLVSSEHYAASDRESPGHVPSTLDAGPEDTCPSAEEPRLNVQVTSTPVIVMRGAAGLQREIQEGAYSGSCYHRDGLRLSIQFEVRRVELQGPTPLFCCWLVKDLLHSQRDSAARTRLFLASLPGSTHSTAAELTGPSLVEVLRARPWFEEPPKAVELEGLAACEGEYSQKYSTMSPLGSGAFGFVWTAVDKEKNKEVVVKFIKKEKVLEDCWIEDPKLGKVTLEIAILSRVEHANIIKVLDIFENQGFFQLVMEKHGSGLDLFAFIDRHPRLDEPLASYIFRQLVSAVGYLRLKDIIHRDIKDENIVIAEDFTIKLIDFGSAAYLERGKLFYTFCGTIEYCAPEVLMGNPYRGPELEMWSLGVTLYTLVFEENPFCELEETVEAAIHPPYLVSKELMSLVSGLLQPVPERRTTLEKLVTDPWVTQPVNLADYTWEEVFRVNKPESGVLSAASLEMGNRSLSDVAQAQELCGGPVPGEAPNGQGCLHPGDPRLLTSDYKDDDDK
Experimental: The compounds of the invention are profiled in a cellular assay to determine their capacity to reduce the autophosphorylation levels of PASK at position Thr307 in Hek293 cells overexpressing PASK, using an ELISA-based readout.
At day 1, a 96-well cell assay plate is coated with poly-D-lysine (50 μL/well of a 0.05 mg/mL solution in PBS) and incubated for 1 h at 37° C. The plate is subsequently washed once with PBS and stored dry at RT until further use. Hek293 cells are transfected with a pcDNA3.1-PASK(FL,WT)-FLAG construct (SEQ ID1) and seeded in culture medium (DMEM+10% FBS) in a poly-D-lysine coated 96-well plate (0.3 μL JetPEI DNA transfection reagent (Polyplus-transfection SA, Cat #101-40), 10 ng construct and 90 ng pBluescript, 60000 cells per well). […] The cell plate is incubated overnight at 37° C., 5% CO2.
At day 2, the medium of the assay plate is removed and 100 μL of fresh medium (DMEM+10% FBS) is added to the plate. Cell plate is further incubated overnight at 37° C., 5% CO2. This to allow further expression of PASK protein.
At day 3, the medium is removed and replaced with 100 μL of serum free medium (DMEM). Test compound is added to the plate (8 points concentration curve with 1/3 dilution steps starting from 30 μM final concentration in 0.3% DMSO final). In the positive and negative control wells of the plate, 0.3% DMSO final is added. For each tested condition, duplicates are made for ELISA readout. Cell plate is incubated 24 h at 37° C., 5% CO2.
At day 4, the medium is removed and the plate is washed once with 100 μL/well PBS. Cells are lysed by adding 50 μL/well western blot lysis buffer (20 mM Tris pH 7.5, 150 mM NaCl and 1% Triton) to the plate. The assay plate is stored at −80° C. and thawed to perform the ELISA readout.
At day 1, the ELISA plate is coated with the mouse anti-FLAG antibody (2 μg/mL diluted in PBS, 100 μL/well) and incubated overnight at 4° C.
At day 2, the plate is washed once with 150 μL/well PBS. 200 μL/well blocking buffer (PBS with 3% BSA) is added and the plate is incubated for 4 h at RT. The plate is washed with 150 μL/well high salt washing buffer (20 mM Na2HPO4, 0.5% Triton X-100, 0.1% SDS, 0.1% BSA and 1 M NaCl) followed by one wash with 150 μL/well low salt washing buffer (20 mM Na2HPO4, 0.5% Triton X-100, 0.1% SDS, 0.1% BSA and 150 mM NaCl). Meanwhile, the cell lysate plate is thawed, two wells of the same condition are pooled (2×50 μL) and added to the ELISA plate. The ELISA plate is incubated overnight at 4° C.
At day 3, the ELISA plate is washed twice with 150 μL/well high salt washing buffer followed by two washes with low salt washing buffer. 100 μL/well detection antibody for pPASK (phospho-Akt substrate (RXXS*/T*) (110B7E) rabbit antibody (Cell Signaling Technology, Inc., Cat #9614) 2 μg/mL diluted in PBS with 3% BSA and 1×Halt™ protease and phosphatase inhibitor cocktail (Thermo Fisher Scientific, Inc., Cat #78447)) is added and incubated for 2 h at RT. The plate is washed twice with high and low salt wash buffer (150 μL/well) and 100 μL/well of an HRP antibody (swine anti-rabbit HRP antibody (Agilent Technologies, Inc., Cat #P039901) diluted 1/2000 in PBS with 3% BSA and 1×Halt™ protease and phosphatase inhibitor cocktail) is added to the plate, followed by an incubation for 1 h at RT in the dark (plate sealed with aluminum seal). The plate is washed twice with high and low salt wash buffer (150 μL/well) and 100 μL/well of SuperSignal™ ELISA Pico Chemiluminescent Substrate (Thermo Fisher Scientific, Inc., Cat #37070)(premix part 1 and part 2, 1/1) is added. The plate is incubated for 4 min at RT before measuring luminescence on the Luminoskan™ Ascent (Thermo Fisher Scientific, Inc.) (PMT default voltage; 100 ms integration time). […]

T1 sequence (Q96RG2 whole entry): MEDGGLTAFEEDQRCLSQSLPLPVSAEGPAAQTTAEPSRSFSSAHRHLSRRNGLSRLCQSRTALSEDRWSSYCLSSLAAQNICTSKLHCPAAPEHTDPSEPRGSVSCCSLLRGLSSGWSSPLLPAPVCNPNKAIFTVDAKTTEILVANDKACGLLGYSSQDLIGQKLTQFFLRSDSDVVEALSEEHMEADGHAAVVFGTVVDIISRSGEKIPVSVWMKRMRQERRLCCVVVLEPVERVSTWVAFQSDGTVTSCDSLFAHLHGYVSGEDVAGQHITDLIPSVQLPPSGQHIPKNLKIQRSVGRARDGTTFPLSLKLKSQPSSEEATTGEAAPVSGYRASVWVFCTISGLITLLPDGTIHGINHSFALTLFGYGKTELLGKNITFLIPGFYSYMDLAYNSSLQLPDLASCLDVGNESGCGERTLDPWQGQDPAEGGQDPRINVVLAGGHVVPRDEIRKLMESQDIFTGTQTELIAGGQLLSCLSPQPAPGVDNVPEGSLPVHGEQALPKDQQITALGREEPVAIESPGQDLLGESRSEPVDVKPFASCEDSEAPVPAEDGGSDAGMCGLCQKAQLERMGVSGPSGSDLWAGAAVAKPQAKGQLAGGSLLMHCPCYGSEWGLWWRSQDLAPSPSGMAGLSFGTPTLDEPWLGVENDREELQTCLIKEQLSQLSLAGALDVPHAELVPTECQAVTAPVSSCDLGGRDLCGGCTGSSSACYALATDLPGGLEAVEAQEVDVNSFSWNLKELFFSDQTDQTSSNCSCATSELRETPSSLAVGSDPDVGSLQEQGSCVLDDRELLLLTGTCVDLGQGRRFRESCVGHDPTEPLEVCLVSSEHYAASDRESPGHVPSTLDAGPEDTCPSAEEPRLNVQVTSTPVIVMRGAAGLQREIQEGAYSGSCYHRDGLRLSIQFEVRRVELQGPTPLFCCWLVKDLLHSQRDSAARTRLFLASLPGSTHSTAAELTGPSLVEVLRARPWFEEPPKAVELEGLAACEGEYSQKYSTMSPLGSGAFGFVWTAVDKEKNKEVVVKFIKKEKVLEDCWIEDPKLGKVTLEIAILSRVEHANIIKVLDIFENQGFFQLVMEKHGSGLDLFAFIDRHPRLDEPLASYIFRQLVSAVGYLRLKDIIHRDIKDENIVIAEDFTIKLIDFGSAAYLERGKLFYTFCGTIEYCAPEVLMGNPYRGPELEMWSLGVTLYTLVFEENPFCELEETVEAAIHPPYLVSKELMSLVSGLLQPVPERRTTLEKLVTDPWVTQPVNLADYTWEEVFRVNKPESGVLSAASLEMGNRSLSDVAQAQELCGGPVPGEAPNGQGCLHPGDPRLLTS

**Q.** With Cc1nn(C(C)C)c(C)c1-c1cnn2ccc(-c3cc(C(=O)O)co3)cc12 [Cpd 18, 5-[3-(1-isopropyl-3,5-dimethyl-pyrazol-4-yl)pyrazolo[1,5-a]pyridin-5-yl]furan-3-carboxylic acid] as the molecule, how does the IC50 (human PASK) read?
**A.** 0.01 to 10 nM

**Q.** And the IC50 [1]?
**A.** 500 to 1000 nM
